# Laboratory results as given in ChEMBL document CHEMBL5346973 (J Med Chem, 2023).
# pIC50: −log10 of the molar value. Where a SMILES comes first, the peptide text is derived from it.
# Experiments:
# [1] = Selectivity ratio of IC50 for human alpha9alpha10 nACh receptor to IC50 for rat alpha9alpha10 nACh receptor
# [2] = biological target: Nicotinic acetylcholine receptor alpha9/alpha10 (Rattus norvegicus, UniProt P43144+Q9JLB5); experiment: Antagonist activity at rat alpha9alpha10 nACh receptor expressed in Xenopus oocyte assessed as inhibition of acetylcholine-induced response at -70 mV holding potential by voltage-clamp based electrophysiological assay; format: cell-based
# [3] = biological target: Neuronal acetylcholine receptor; alpha9/alpha10 (Homo sapiens, UniProt Q9GZZ6+Q9UGM1); experiment: Antagonist activity at human alpha9alpha10 nACh receptor expressed in Xenopus oocyte assessed as inhibition of acetylcholine-induced response at -70 mV holding potential by voltage-clamp based electrophysiological assay; format: cell-based
# [4] = biological target: Neuronal acetylcholine receptor subunit alpha-7 (Rattus norvegicus, UniProt Q05941); experiment: Antagonist activity at rat alpha7 nACh receptor expressed in Xenopus oocyte assessed as inhibition of acetylcholine-induced response at -70 mV holding potential by voltage-clamp based electrophysiological assay; format: cell-based
# [5] = Stability of the compound in human serum assessed as compound remaining after 6 hr by UPLC analysis; format: ADME, cell-free
# Sequence of Neuronal acetylcholine receptor; alpha9/alpha10 (Q9UGM1 whole entry): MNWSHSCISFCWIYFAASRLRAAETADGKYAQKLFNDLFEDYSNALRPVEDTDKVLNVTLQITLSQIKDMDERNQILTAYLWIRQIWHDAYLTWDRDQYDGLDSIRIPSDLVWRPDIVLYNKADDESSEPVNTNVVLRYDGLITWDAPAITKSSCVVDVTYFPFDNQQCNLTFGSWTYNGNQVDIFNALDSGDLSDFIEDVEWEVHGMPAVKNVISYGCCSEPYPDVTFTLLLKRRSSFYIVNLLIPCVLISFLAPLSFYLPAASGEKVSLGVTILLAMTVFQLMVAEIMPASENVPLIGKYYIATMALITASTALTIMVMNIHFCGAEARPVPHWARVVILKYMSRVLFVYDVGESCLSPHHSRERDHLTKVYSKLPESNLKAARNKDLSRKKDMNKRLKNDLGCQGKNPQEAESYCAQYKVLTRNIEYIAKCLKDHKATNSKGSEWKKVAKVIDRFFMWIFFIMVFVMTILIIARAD
# Sequence of Neuronal acetylcholine receptor; alpha9/alpha10 (Q9GZZ6 whole entry): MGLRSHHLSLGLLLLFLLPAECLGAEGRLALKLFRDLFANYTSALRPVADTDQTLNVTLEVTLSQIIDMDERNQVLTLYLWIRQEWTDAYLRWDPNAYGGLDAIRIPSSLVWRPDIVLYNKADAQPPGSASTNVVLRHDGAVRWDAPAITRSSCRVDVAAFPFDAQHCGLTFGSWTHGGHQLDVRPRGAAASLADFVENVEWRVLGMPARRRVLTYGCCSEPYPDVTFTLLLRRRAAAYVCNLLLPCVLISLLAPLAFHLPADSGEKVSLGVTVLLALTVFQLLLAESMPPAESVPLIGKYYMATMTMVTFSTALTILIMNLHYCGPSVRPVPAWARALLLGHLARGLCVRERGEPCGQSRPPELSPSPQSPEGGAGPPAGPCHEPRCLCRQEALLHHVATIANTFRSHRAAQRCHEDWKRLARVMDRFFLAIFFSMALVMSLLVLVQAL
# Sequence of Nicotinic acetylcholine receptor alpha9/alpha10 (P43144 whole entry): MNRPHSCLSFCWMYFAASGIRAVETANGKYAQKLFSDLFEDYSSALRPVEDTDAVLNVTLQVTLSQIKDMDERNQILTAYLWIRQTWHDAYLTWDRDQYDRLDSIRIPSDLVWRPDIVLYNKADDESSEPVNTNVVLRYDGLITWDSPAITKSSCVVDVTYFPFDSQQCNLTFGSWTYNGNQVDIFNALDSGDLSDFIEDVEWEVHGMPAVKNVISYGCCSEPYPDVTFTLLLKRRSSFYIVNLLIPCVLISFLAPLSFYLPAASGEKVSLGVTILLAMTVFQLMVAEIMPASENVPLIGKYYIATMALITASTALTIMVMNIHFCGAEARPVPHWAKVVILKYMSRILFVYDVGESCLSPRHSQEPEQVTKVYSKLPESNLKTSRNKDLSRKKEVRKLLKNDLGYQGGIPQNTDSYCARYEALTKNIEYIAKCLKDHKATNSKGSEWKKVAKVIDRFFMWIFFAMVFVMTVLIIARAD
# Sequence of Nicotinic acetylcholine receptor alpha9/alpha10 (Q9JLB5 whole entry): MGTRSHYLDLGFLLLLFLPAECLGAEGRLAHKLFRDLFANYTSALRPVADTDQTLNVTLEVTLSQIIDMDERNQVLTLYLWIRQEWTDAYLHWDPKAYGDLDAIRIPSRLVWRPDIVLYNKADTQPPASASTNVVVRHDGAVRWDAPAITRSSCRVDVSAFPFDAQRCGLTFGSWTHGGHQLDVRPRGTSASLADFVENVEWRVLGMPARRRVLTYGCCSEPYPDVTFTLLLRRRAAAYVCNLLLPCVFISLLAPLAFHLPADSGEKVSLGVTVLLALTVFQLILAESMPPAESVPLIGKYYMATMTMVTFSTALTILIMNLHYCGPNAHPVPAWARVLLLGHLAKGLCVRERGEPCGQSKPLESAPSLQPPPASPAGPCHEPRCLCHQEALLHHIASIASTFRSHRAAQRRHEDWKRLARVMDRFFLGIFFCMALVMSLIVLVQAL
# Sequence of Neuronal acetylcholine receptor subunit alpha-7 (Q05941 whole entry): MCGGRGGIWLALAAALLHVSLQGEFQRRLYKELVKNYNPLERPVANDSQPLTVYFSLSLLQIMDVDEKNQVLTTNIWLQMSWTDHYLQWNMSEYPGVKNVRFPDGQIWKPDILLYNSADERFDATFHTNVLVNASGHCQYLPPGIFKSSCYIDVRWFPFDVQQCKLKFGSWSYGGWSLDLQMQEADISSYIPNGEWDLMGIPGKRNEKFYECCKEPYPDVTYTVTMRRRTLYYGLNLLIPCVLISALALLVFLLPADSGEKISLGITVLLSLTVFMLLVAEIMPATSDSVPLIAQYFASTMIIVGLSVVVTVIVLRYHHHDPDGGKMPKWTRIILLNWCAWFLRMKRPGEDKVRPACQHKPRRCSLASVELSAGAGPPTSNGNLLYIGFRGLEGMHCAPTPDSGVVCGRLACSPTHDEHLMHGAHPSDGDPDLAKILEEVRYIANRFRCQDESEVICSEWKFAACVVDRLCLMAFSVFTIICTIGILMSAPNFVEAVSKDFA
Compound,Ratio IC50 [1],pIC50 [2],pIC50 [3],pIC50 [4],Stability [5]
C[C@@H](O)[C@H](NC(=O)[C@H](CS)NC(=O)[C@H](CS)NC(=O)CN)C(=O)N[C@@H](CC(=O)O)C(=O)N1CCC[C@H]1C(=O)N[C@@H](CCCNC(=N)N)C(=O)N[C@@H](CS)C(=O)N[C@@H](CCCNC(=N)N)C(=O)N[C@@H](Cc1ccc(O)c(I)c1)C(=O)N[C@@H](CCC(N)=O)C(=O)N[C@@H](CS)C(=O)N[C@@H](Cc1ccc(O)cc1)C(=O)O,1.7,9.05,8.82,–,–
CC[C@H](C)[C@H](NC(=O)[C@H](CCC(=O)O)NC(=O)[C@@H]1CCCN1C(=O)[C@H](Cc1cnc[nH]1)NC(=O)[C@H](CC(=O)O)NC(=O)[C@H](Cc1ccc(O)cc1)NC(=O)[C@H](CC(N)=O)NC(=O)[C@H](CS)NC(=O)[C@H](CCCNC(=N)N)NC(=O)[C@@H]1CCCN1C(=O)[C@H](CC(=O)O)NC(=O)[C@H](CO)NC(=O)[C@H](CS)NC(=O)[C@H](CS)NC(=O)CN)C(=O)N[C@@H](CS)C(N)=O,4.6,7.15,6.49,–,–
N=C(N)NCCC[C@H](NC(=O)[C@H](CS)NC(=O)[C@H](CCCNC(=N)N)NC(=O)[C@H](Cc1ccc(O)cc1)NC(=O)[C@H](CCCNC(=N)N)NC(=O)[C@H](CS)NC(=O)[C@H](CCCNC(=N)N)NC(=O)[C@@H]1CCCN1C(=O)[C@H](CC(=O)O)NC(=O)[C@H](CO)NC(=O)[C@H](CS)NC(=O)[C@H](CS)NC(=O)CN)C(=O)O,329,8.82,6.31,–,–
CC[C@H](C)[C@@H]1NC(=O)[C@H](CCCNC(=N)N)NC(=O)[C@H](CCCNC(=N)N)NC(=O)[C@@H](NC(=O)[C@H](Cc2ccc(O)cc2)NC(=O)[C@H](CCCNC(=N)N)NC(=O)[C@H](C)NC(=O)[C@H](CCCNC(=N)N)NC(=O)[C@H](CCCNC(=N)N)NC(=O)[C@H](CC(=O)O)NC(=O)[C@H](Cc2ccc(O)cc2)NC(=O)[C@@H]2CCCN2C(=O)[C@H](CO)NC(=O)[C@H](CCCNC(=N)N)NC(=O)[C@@H]2CSSC[C@H](NC(=O)[C@@H](N)[C@@H](C)O)C(=O)N[C@@H](CCCNC(=N)N)C(=O)N[C@@H](CO)C(=O)N[C@@H](CO)C(=O)NCC(=O)N[C@@H](CCCNC(=N)N)C(=O)N[C@@H](Cc3ccc(O)cc3)C(=O)N2)CSSC[C@@H](C(=O)N[C@H](C(=O)O)C(C)C)NC(=O)[C@H](C)NC(=O)[C@H](CC(=O)O)NC(=O)[C@H]([C@@H](C)O)NC1=O,–,7.57,–,5.35,Stable
"CC[C@H](C)[C@@H]1NC(=O)[C@H](CCCNC(=N)N)NC(=O)[C@H](CCCNC(=N)N)NC(=O)[C@@H](NC(=O)[C@H](Cc2ccc(O)cc2)NC(=O)[C@H](CCCNC(=N)N)NC(=O)[C@H](CCCNC(=N)N)NC(=O)[C@H](CCCNC(=N)N)NC(=O)[C@H](CCCNC(=N)N)NC(=O)[C@H](CC(=O)O)NC(=O)[C@H](Cc2ccc(O)cc2)NC(=O)[C@@H]2CCCN2C(=O)[C@H](CO)NC(=O)[C@H](CCCNC(=N)N)NC(=O)[C@@H]2CSSC[C@H](NC(=O)[C@@H](N)[C@@H](C)O)C(=O)N[C@@H](CCCNC(=N)N)C(=O)N[C@@H](CO)C(=O)N[C@@H](CO)C(=O)NCC(=O)N[C@@H](C)C(=O)N[C@@H](Cc3ccc(O)cc3)C(=O)N2)CSSC[C@@H](C(=O)N[C@H](C(=O)O)C(C)C)NC(=O)[C@H](C)NC(=O)[C@H](CC(=O)O)NC(=O)[C@H]([C@@H](C)O)NC1=O (HELM PEPTIDE1{T.C.R.S.S.G.A.Y.C.R.S.P.Y.D.R.R.R.R.Y.C.R.R.I.T.D.A.C.V}$PEPTIDE1,PEPTIDE1,2:R3-9:R3|PEPTIDE1,PEPTIDE1,20:R3-27:R3$$$V2.0)",–,7.36,–,5.83,–
CC(C)C[C@H](NC(=O)[C@H](CCC(=O)O)NC(=O)[C@@H]1CCCN1C(=O)[C@H](Cc1cnc[nH]1)NC(=O)[C@H](CC(N)=O)NC(=O)[C@@H](NC(=O)[C@H](CO)NC(=O)[C@H](CS)NC(=O)[C@H](C)NC(=O)[C@@H]1CCCN1C(=O)[C@H](Cc1cnc[nH]1)NC(=O)[C@H](CO)NC(=O)[C@H](CS)NC(=O)[C@H](CS)NC(=O)CN)C(C)C)C(=O)N[C@@H](CS)C(N)=O (H-GCCSHPACSVNHPELC-NH2),3.2,8.16,7.65,–,–
"CC[C@H](C)[C@@H]1NC(=O)[C@H](CCCNC(=N)N)NC(=O)[C@H](CCCNC(=N)N)NC(=O)[C@@H]2CSSC[C@H](NC(=O)[C@H](Cc3ccc(O)cc3)NC(=O)[C@H](CCCNC(=N)N)NC(=O)CNC(=O)[C@H](CO)NC(=O)[C@H](CO)NC(=O)[C@H](CCCNC(=N)N)NC(=O)[C@@H](NC(=O)[C@@H](N)[C@@H](C)O)CSSC[C@@H](C(=O)N[C@H](C(=O)O)C(C)C)NC(=O)[C@H](C)NC(=O)[C@H](CC(=O)O)NC(=O)[C@H]([C@@H](C)O)NC1=O)C(=O)N[C@@H](CCCNC(=N)N)C(=O)N[C@@H](C)C(=O)N1CCC[C@H]1C(=O)N[C@@H](Cc1ccc(O)cc1)C(=O)N[C@@H](CC(=O)O)C(=O)N[C@@H](CCCNC(=N)N)C(=O)N[C@@H](CCCNC(=N)N)C(=O)N[C@@H](CCCNC(=N)N)C(=O)N[C@@H](CCCNC(=N)N)C(=O)N[C@@H](Cc1ccc(O)cc1)C(=O)N2 (HELM PEPTIDE1{T.C.R.S.S.G.R.Y.C.R.A.P.Y.D.R.R.R.R.Y.C.R.R.I.T.D.A.C.V}$PEPTIDE1,PEPTIDE1,2:R3-27:R3|PEPTIDE1,PEPTIDE1,9:R3-20:R3$$$V2.0)",–,8.00,–,5.25,–
"CC[C@H](C)[C@@H]1NC(=O)[C@H](CCCNC(=N)N)NC(=O)[C@H](CCCNC(=N)N)NC(=O)[C@@H]2CSSC[C@H](NC(=O)[C@H](Cc3ccc(O)cc3)NC(=O)[C@H](CCCNC(=N)N)NC(=O)CNC(=O)[C@H](CO)NC(=O)[C@H](CO)NC(=O)[C@H](CCCNC(=N)N)NC(=O)[C@@H](NC(=O)[C@@H](N)[C@@H](C)O)CSSC[C@@H](C(=O)N[C@H](C(=O)O)C(C)C)NC(=O)[C@H](C)NC(=O)[C@H](CC(=O)O)NC(=O)[C@H]([C@@H](C)O)NC1=O)C(=O)N[C@@H](CCCNC(=N)N)C(=O)N[C@@H](CO)C(=O)N1CCC[C@H]1C(=O)N[C@@H](Cc1ccc(O)cc1)C(=O)N[C@@H](C)C(=O)N[C@@H](CCCNC(=N)N)C(=O)N[C@@H](CCCNC(=N)N)C(=O)N[C@@H](CCCNC(=N)N)C(=O)N[C@@H](CCCNC(=N)N)C(=O)N[C@@H](Cc1ccc(O)cc1)C(=O)N2 (HELM PEPTIDE1{T.C.R.S.S.G.R.Y.C.R.S.P.Y.A.R.R.R.R.Y.C.R.R.I.T.D.A.C.V}$PEPTIDE1,PEPTIDE1,2:R3-27:R3|PEPTIDE1,PEPTIDE1,9:R3-20:R3$$$V2.0)",–,8.33,–,5.12,–
"CC[C@H](C)[C@@H]1NC(=O)[C@H](CCCNC(=N)N)NC(=O)[C@H](CCCNC(=N)N)NC(=O)[C@@H]2CSSC[C@H](NC(=O)[C@H](C)NC(=O)[C@H](CCCNC(=N)N)NC(=O)CNC(=O)[C@H](CO)NC(=O)[C@H](CO)NC(=O)[C@H](CCCNC(=N)N)NC(=O)[C@@H](NC(=O)[C@@H](N)[C@@H](C)O)CSSC[C@@H](C(=O)N[C@H](C(=O)O)C(C)C)NC(=O)[C@H](C)NC(=O)[C@H](CC(=O)O)NC(=O)[C@H]([C@@H](C)O)NC1=O)C(=O)N[C@@H](CCCNC(=N)N)C(=O)N[C@@H](CO)C(=O)N1CCC[C@H]1C(=O)N[C@@H](Cc1ccc(O)cc1)C(=O)N[C@@H](CC(=O)O)C(=O)N[C@@H](CCCNC(=N)N)C(=O)N[C@@H](CCCNC(=N)N)C(=O)N[C@@H](CCCNC(=N)N)C(=O)N[C@@H](CCCNC(=N)N)C(=O)N[C@@H](Cc1ccc(O)cc1)C(=O)N2 (HELM PEPTIDE1{T.C.R.S.S.G.R.A.C.R.S.P.Y.D.R.R.R.R.Y.C.R.R.I.T.D.A.C.V}$PEPTIDE1,PEPTIDE1,2:R3-27:R3|PEPTIDE1,PEPTIDE1,9:R3-20:R3$$$V2.0)",–,6.92,–,5.13,–
"CC[C@H](C)[C@@H]1NC(=O)[C@H](CCCNC(=N)N)NC(=O)[C@H](CCCNC(=N)N)NC(=O)[C@@H]2CSSC[C@H](NC(=O)[C@H](Cc3ccc(O)cc3)NC(=O)[C@H](CCCNC(=N)N)NC(=O)[C@H](C)NC(=O)[C@H](CO)NC(=O)[C@H](CO)NC(=O)[C@H](CCCNC(=N)N)NC(=O)[C@@H](NC(=O)[C@@H](N)[C@@H](C)O)CSSC[C@@H](C(=O)N[C@H](C(=O)O)C(C)C)NC(=O)[C@H](C)NC(=O)[C@H](CC(=O)O)NC(=O)[C@H]([C@@H](C)O)NC1=O)C(=O)N[C@@H](CCCNC(=N)N)C(=O)N[C@@H](CO)C(=O)N1CCC[C@H]1C(=O)N[C@@H](Cc1ccc(O)cc1)C(=O)N[C@@H](CC(=O)O)C(=O)N[C@@H](CCCNC(=N)N)C(=O)N[C@@H](CCCNC(=N)N)C(=O)N[C@@H](CCCNC(=N)N)C(=O)N[C@@H](CCCNC(=N)N)C(=O)N[C@@H](Cc1ccc(O)cc1)C(=O)N2 (HELM PEPTIDE1{T.C.R.S.S.A.R.Y.C.R.S.P.Y.D.R.R.R.R.Y.C.R.R.I.T.D.A.C.V}$PEPTIDE1,PEPTIDE1,2:R3-27:R3|PEPTIDE1,PEPTIDE1,9:R3-20:R3$$$V2.0)",–,7.77,–,5.24,–
